In paper PMC7460559 (International Journal of Molecular Sciences, 2020):
In brackets after ≈: the same amount, converted by molar mass. Residues, ends and D or L forms follow the SMILES beside them. No end group written: not given here.

Assays:
S. aureus ATCC 25923 = experiment: Resistance development assay; format: cell-based, Staphylococcus aureus; settings: S. aureus ATCC 25923, 12 passages from 1/2 MIC well, DMEM supplemented with 10% fetal bovine serum, MICs in duplicate
Description: Daily MICs were determined over 15 days for each agent using cells collected from the well determined as having half the MIC (1/2 MIC well). Briefly, cells from the 1/2 MIC well from the preceding day’s assay plate were resuspended and the OD600 was measured. The suspensions were then adjusted to achieve a bacterial concentration of 5 × 10^5 cfu/mL in DMEM supplemented with 10% fetal bovine serum and then mixed with each agent at the appropriate concentration. All MICs were determined in duplicate [26].

[1] = Reverse-phase HPLC retention time (hydrophobicity); format: physicochemical; settings: mean retention time, Jupiter proteo C18 column (250 × 4.6 mm, 90 Å, 4 μm), 280 nm, used by the paper as measure of hydrophobicity
Description: Peptides were synthesized by using a 9-fluorenylmethoxycarbonyl (Fmoc) solid-phase method on Rink amide 4-methyl benzhydrylamine resin (Novabiochem, Darmstadt, Germany) (0.55 mmol/g) using a Liberty microwave peptide synthesizer (CEM, Matthews, NC, USA). To generate N-terminal fluorescently-labeled peptides, resin-bound peptides were treated with 20% (v/v) piperidine in dimethylformamide (DMF) to remove the Fmoc protection groups from the N-terminal amino acids. Rhodamine-SE dye was incubated with resin-bound peptide in DMF (3–4 eq.) containing 5% (v/v) diisopropylethylamine, and gently mixing for 24 h at room temperature in the dark. The resin was washed with dichloromethane (DCM). The peptides were cleaved from the corresponding resins, precipitated with ether, and extracted. The crude peptides were purified by reverse-phase preparative high-performance liquid chromatography (HPLC) on a Jupiter C18 column (250 × 21.2 mm, […], 300 Å; Phenomenex, Torrance, CA, USA) using a 0–60% acetonitrile gradient in water with 0.05% trifluoroacetic acid. The purity of the extracted peptide was then determined by analytical reversed-phase HPLC (wavelength of 280 nm) using a Jupiter proteo C18 column (250 × 4.6 mm, 90 Å, 4 μm). The molecular masses of the peptides were confirmed on a matrix-assisted laser desorption ionization mass spectrometer (Kratos Analytical, Kyoto, Japan).

[2] = test system: sheep red blood cells (sheep RBCs); experiment: Hemolysis; format: cell-based; settings: data overlapped with those of HPA3NT3-A2
Description: Fresh samples of sheep blood defibrinated cells (MBcell, Seoul, Korea) were centrifuged at 800× g and washed with phosphate-buffered saline (PBS) until the supernatant was clear. Serial dilutions (two-fold) of peptide prepared in PBS were plated, and sheep red blood cells (sheep RBCs) were added to a final concentration of 8% (v/v) in a 96-well plate. The samples were incubated for 1 h at 37 °C with gentle agitation and then centrifuged at 800× g for 10 min. The absorbance of the supernatant was measured at 414 nm; each measurement was performed in triplicate and the percentage hemolysis was calculated using Equation (1):% hemolysis = [(Abs414 in the peptide solution − Abs414 in PBS)/(Abs414 in 0.1% Triton-X100 − Abs414 in PBS)] × 100(1) where 100% hemolysis was defined as the absorbance of sheep RBCs containing 1% Triton X-100 and zero hemolysis was the value measured for sheep RBCs alone in PBS [10].

[3] = test system: PC/SM (2:1, w/w) small unilamellar vesicle (SUV) liposomes; experiment: Binding assay with SUV liposomes by CD; settings: 50 μM peptide, 300 μM SUVs, 10 mM HEPES buffer (pH 7.4), 25 °C, n = 3
Description: (§1) SUVs were prepared by drying of phosphatidylethanolamine (PE)/phosphatidyl glycerol (PG) (7:3, w/w) or phosphatidylcholine (PC)/sphingomyelin (SM) (2:1, w/w) under nitrogen, suspension by vortex mixing in 10 mM HEPES buffer (pH 7.4), and sonication. To prepare the SUVs, the lipid diffusions were sonicated in a bath-type sonicator for 20 min. Next, the suspensions of preparation vesicles were extruded 10 times through polycarbonate membranes ([…] pores). The concentration of SUV liposomes was determined using a standard phosphate assay. Circular dichroism (CD) spectra were recorded at 25 °C on a Jasco 810 spectropolarimeter. The peptide (50 μM) solution was added to 400 μL of 10 mM HEPES buffer or to 300 μM SUVs. At least three scans were acquired at 250 to 190 nm.

[4] = test system: PE/PG (7:3, w/w) small unilamellar vesicle (SUV) liposomes; experiment: Binding assay with SUV liposomes by CD; settings: 50 μM peptide, 300 μM SUVs, 10 mM HEPES buffer (pH 7.4), 25 °C, n = 3
Description: as §1

P. aeruginosa 3547 = experiment: MIC assay, drug-resistant strain; format: cell-based; settings: Pseudomonas aeruginosa; P. aeruginosa 3547, resistant isolate from otitis media patients; peptides in DMEM supplemented with 10% FBS
Text: (§2) Escherichia coli (ATCC 25922) and S. aureus (ATCC 25923) were obtained from American Type Culture Collection (Manassas, VA, USA). Escherichia coli CCARM 1229, E. coli CCARM 1238, S. aureus CCARM 3089, S. aureus 3114, Salmonella typhimurium CCARM 8009, and S. typhimurium CCARM 8013 were obtained from the culture collection of antibiotic-resistant microbes at Seoul Women’s University, Republic of Korea. Pseudomonas aeruginosa 3547 and P. aeruginosa 4007 were resistant strains isolated from hospital patients with otitis media at Chonnam National University, Republic of Korea. The rifampin-resistant S. aureus PBEL 1 and vancomycin-resistant S. aureus PBEL 2 strains used in this study were generated from wild-type S. aureus (ATCC 25923).
(§3) Bacterial cells were incubated within culture media at 37 °C. The peptide antimicrobial activity was determined by the minimal inhibition concentration (MIC) assay. […] The samples were incubated for 18–24 h at 37 °C. After incubation, the minimum inhibitory concentrations (MICs) of the peptides were determined by measuring the absorbance at an optical density of 600 nm (OD600).

P. aeruginosa 4007 = experiment: MIC assay, drug-resistant strain; format: cell-based; settings: Pseudomonas aeruginosa; P. aeruginosa 4007, resistant isolate from otitis media patients; peptides in DMEM supplemented with 10% FBS
Text: as §2, §3

S. aureus CCARM 3089 = experiment: MIC assay, drug-resistant strain; format: cell-based; settings: Staphylococcus aureus, CCARM3089, peptides in DMEM supplemented with 10% FBS
Text: as §2, §3

S. aureus CCARM 3114 = experiment: MIC assay, drug-resistant strain; format: cell-based; settings: Staphylococcus aureus, CCARM3114, peptides in DMEM supplemented with 10% FBS
Text: as §2, §3

S. aureus PBEL 1 = experiment: MIC assay, drug-resistant strain; format: cell-based; settings: Staphylococcus aureus, PBEL1; S. aureus PBEL 1, rifampin-resistant (induced); peptides in DMEM supplemented with 10% FBS
Text: as §2, §3

S. aureus PBEL 2 = experiment: MIC assay, drug-resistant strain; format: cell-based; settings: Staphylococcus aureus, PBEL2; S. aureus PBEL 2, vancomycin-resistant (induced); peptides in DMEM supplemented with 10% FBS
Text: as §2, §3

[5] = test system: S. typhimurium CCARM 8009; experiment: MIC assay, drug-resistant strain; format: cell-based; settings: Salmonella enterica, peptides in DMEM supplemented with 10% FBS
Text: as §2, §3

[6] = test system: S. typhimurium CCARM 8013; experiment: MIC assay, drug-resistant strain; format: cell-based; settings: Salmonella enterica, peptides in DMEM supplemented with 10% FBS
Text: as §2, §3

E. coli CCARM 1229 = experiment: MIC assay, drug-resistant strain; format: cell-based; settings: Escherichia coli, CCARM1229, peptides assayed in DMEM supplemented with 10% FBS
Text: as §2, §3

E. coli CCARM 1238 = experiment: MIC assay, drug-resistant strain; format: cell-based; settings: Escherichia coli, CCARM1238, peptides assayed in DMEM supplemented with 10% FBS
Text: as §2, §3

[7] = test system: HaCa T (human keratinocyte) cells; settings: at 250 μM; cited from earlier work
Description: (§4) Previously, we determined the properties of HPA3NT3 as an antimicrobial peptide. This peptide has an amphipathic helical structure, strong antimicrobial activity, and cytotoxic ability at 250 μM (sheep RBCs, 68.4%; HaCaT cells, 85.1%). This peptide was designed to have low cytotoxicity at higher concentrations and was generated by substituting phenylalanine with alanine and lysine (F1A, F8A, and N13K) to enhance its antimicrobial activity by increasing the net positive charge.

[8] = test system: sheep red blood cells (sheep RBCs); settings: at 250 μM; cited from earlier work
Description: as §4

Molecule | increase in MIC (resistance development) (S. aureus ATCC 25923) | Retention Time [1] [min] | interaction with PC/SM liposome (CD) [3] | interaction with PE/PG liposome (CD) [4] | MIC (P. aeruginosa 3547) [µM] | MIC (P. aeruginosa 4007) [µM] | MIC (S. aureus CCARM 3089) [µM] | MIC (S. aureus CCARM 3114) [µM] | MIC (S. aureus PBEL 1) [µM] | MIC (S. aureus PBEL 2) [µM] | MIC [5] [µM] | MIC [6] [µM] | also measured
CO[C@H]1/C=C/O[C@@]2(C)Oc3c(C)c(O)c4c(O)c(c(/C=N/N5CCN(C)CC5)c(O)c4c3C2=O)NC(=O)/C(C)=C\C=C\[C@H](C)[C@H](O)[C@@H](C)[C@@H](O)[C@@H](C)[C@H](OC(C)=O)[C@@H]1C [rifampin] | 8192 fold | – | – | – | – | – | – | – | – | – | – | – | –
CC[C@H](C)[C@H](NC(=O)[C@@H](CCCCN)NC(=O)[C@@H](CCCCN)NC(=O)[C@H](C)NC(=O)[C@H](CC(C)C)NC(=O)[C@@H](CCCCN)NC(=O)[C@@H](CCCCN)NC(=O)[C@H](CC(C)C)NC(=O)[C@H](CCCNC(=N)N)NC(=O)[C@@H](CCCCN)NC(=O)[C@H](C)N)C(=O)N[C@@H](Cc1c[nH]c2ccccc12)C(=O)N[C@H](CCCCN)C(=O)N[C@@H](Cc1c[nH]c2ccccc12)C(=O)N[C@H](CCCCN)C(N)=O [HPA3NT3-A2D] (HELM PEPTIDE1{A.[dK].R.L.[dK].[dK].L.A.[dK].[dK].I.W.[dK].W.[dK].[am]}$$$$V2.0; N-terminus assumed) | no change in the MIC | 11.97 | low levels of α-helical structures | low levels of α-helical structures | – | – | – | – | – | – | – | – | hemolysis against sheep RBCs (in words) [2]: non-hemolysis
CC1(C)S[C@@H]2[C@H](NC(=O)[C@H](N)c3ccccc3)C(=O)N2[C@H]1C(=O)O [Amp, ampicillin] | – | – | – | – | > 512 | > 512 | > 512 | > 512 | > 512 | > 512 | > 512 | > 512 | –
CC[C@H]1OC(=O)[C@H](C)[C@@H](O[C@H]2C[C@@](C)(OC)[C@@H](O)[C@H](C)O2)[C@H](C)[C@@H](O[C@@H]2O[C@H](C)C[C@H](N(C)C)[C@H]2O)[C@](C)(O)C[C@@H](C)C(=O)[C@H](C)[C@@H](O)[C@]1(C)O [Ery, erythromycin] | – | – | – | – | > 512 | > 512 | > 512 | > 512 | > 512 | > 512 | 256 (≈ 188 µg/mL) | 128 (≈ 93.9 µg/mL) | MIC (E. coli CCARM 1229): 256 µM (≈ 188 µg/mL); MIC (E. coli CCARM 1238): 256 µM (≈ 188 µg/mL)
O=C(O)c1cn(C2CC2)c2cc(N3CCNCC3)c(F)cc2c1=O [Cip, ciprofloxacin] | – | – | – | – | > 512 | > 512 | > 512 | > 512 | > 512 | > 512 | – | – | –
FKRLKKLFKKIWNWK-NH2 [HPA3NT3] | – | 20.94 | strongest interaction and α-helical structure | strongest interaction and α-helical structure | – | – | – | – | – | – | – | – | toxicity against HaCaT cells [7]: 85.1%; hemolytic activity against sheep RBCs [8]: 68.4%
